# Experimental data: patent publication US8609723B2 (Beijing Dingguochangsheng Biotech., Co., Ltd., priority 2008, dated 2013)
# Test system: 5-HT, NA, DA and metabolites thereof in hippocampus
# Experiment: Detection of monoamine and metabolites thereof in brains of mice
# Format: in vivo
# Settings: 18.4 mg/kg
# Description: Hippocampus was collected immediately on ice, weighed, put into an Eppendorf tube and kept in refrigeratory at −80° C. To each 100 mg brain tissue, 200 μl ice-cooled Solution A (0.4 mol/L HCLO4) was added. The mixture was homogenized ultrasonically in a ice bath, kept in dark at 4° C. for 60 min, and centrifuged for 20 min (12,000 rpm, 4° C.). […] The mixture was vortexed thoroughly for 10 min, kept at 4° C. in dark for 60 min, and centrifuged again for 20 min (12,000 rpm, 4° C.). The supernatant was collected and measured for the content of monoamine. The contents of 5-HT, NA, DA, 5-HIAA and DOPAC in brain tissue were determined by High Effective Liquid Phase Electrochemistry. […] The contents of monoamine and metabolites thereof in brain tissue were shown as ng/g wet tissue weight.
# [1] = first line of group (Day 3 presumed)
# [2] = second line of group (Day 7 presumed)
substance,measurement,setting,value
curcumin decanoate [long acting curcumin],Hippocampus 5-HIAA,[1],183.4 ± 14.2 ng/g
same,Hippocampus 5-HIAA/5-HT,[1],0.25 ± 0.02
same,Hippocampus 5-HT,[1],713.1 ± 19.2 ng/g
same,Hippocampus DOPAC,[1],13.1 ± 2.0 ng/g
same,Hippocampus Dopamine,[1],20.3 ± 5.9 ng/g
same,Hippocampus Noradrenaline,[1],369.9 ± 12.3 ng/g
same,Hippocampus 5-HIAA,[2],186.3 ± 8.4 ng/g
same,Hippocampus 5-HIAA/5-HT,[2],0.25 ± 0.03
same,Hippocampus 5-HT,[2],725.0 ± 30.4 ng/g
same,Hippocampus DOPAC,[2],14.6 ± 2.1 ng/g
same,Hippocampus Dopamine,[2],21.2 ± 5.6 ng/g
same,Hippocampus Noradrenaline,[2],372.2 ± 21.6 ng/g
